Measurements as given in patent US6825177B2, “Aryl phosphate derivatives of d4T with potent anti-viral activity” (Parker Hughes Institute, priority 2000, dated 2004).
Like-named read-outs stand apart in the source and are kept apart here.

Legend:
[1] = Pharmacokinetics after oral administration of HI-113; type: in vivo, Balb/c mice
Protocol: Female Balb/c mice (6-8 weeks old) from Taconic (Germantown, N.Y.) were housed in a controlled environment (12-hours of light/12-hours of dark, 22±1° C., 60±10% relative humidity), which is fully accredited by the USDA. All rodents were housed in microisolator cages (Lab Products, Inc., N.J.) containing autoclaved bedding. The mice were allowed free access to autoclaved pellet food and tap water throughout the study. All animal care procedures conformed to the Guide for the Care and Use of Laboratory Animals (National Research Council, National Academy Press, Washington D.C. 1996).
Sampling time points were 0, 2, 5, 10, 15, 30, 45, 60, 120, 240 and 360 minutes after the gavage. […]
Pharmacokinetic modeling and parameter calculations were carried out using the WinNonlin Professional Version 3.0 (Pharsight, Inc., Mountain, Calif.) pharmacokinetics software (Chen et al., Pharm. Res., 16, 1003 (1999); Chen et al., Pharm. Res., 16, 117 (1999); Chen et al., J. Clin. Pharmacol., 39, 1248 (1999); Uckun et al., Clin. Cancer Res., 5, 2954 (1999); and Uckun et al., J. Pharmacol. Exp. Ther., 291, 1301 (1999)). […] The area under the concentration-time curve (AUC) was calculated according to the linear trapezoidal rule between the first sampling time (0 hours) and the last sampling time plus C/k, where C is the concentration of the last sampling and k is the elimination rate constant. […]

[2] = Stability of HI-113 and Ala-d4T-MP in plasma; type: in vitro ADME; settings: for stability in plasma: 250 μM HI-113, 100 μM Ala-d4T-MP
From the text: (§1) The HPLC system used for these studies was a Hewlett Packard (Palo Alto, Calif.) series 1100 instrument equipped with a quaternary pump, an autosampler, an automatic electronic degasser, an automatic thermostatic column compartment, a diode array detector and a computer with Chemstation software for data analysis (Chen et al., J. Chromatogr. B., 724, 157 (1999); Chen et al., J. Chromatogr. B., 727, 205 (1999); and Chen et al., J. Liq. Chromatogr., 22, 1771 (1999)). The analytical column used was a Zobax SB-Phenyl (5 μm, Hewlett Packard, Inc.) column attached to a guard column (Hewlett Packard, Inc.). The column was equilibrated prior to data collection. […] The detection wavelength was 268 nm, the peakwidth was less than 0.03 minutes, the response time was 0.5 seconds, and the slit was 4 nm.
(§2) Plasma samples (200 μL) were mixed 1:4 with acetone (800 μL) and vortexed for at least 30 seconds. Following centrifugation, the supernatant was transferred into a clean tube and was dried under nitrogen. A 50 μL solution of 50% methanol in 200 mM HCl was used to reconstitute the extraction residue, and 40 μL was injected into the HPLC.
(§3) The whole blood samples were placed in a 37° C. water bath, while plasma samples were stored at −20° C. At a predetermined time, an aliquot (100 μl) of spiked whole blood or plasma was extracted by adding 400 μl of acetone to induce precipitation of proteins, as described above.

[3] = Stability in simulated intestinal fluid; type: in vitro ADME; settings: 100 μM, 37° C.
Protocol: (§4) The spiked fluids were then placed in a 37° C. water bath. At a predetermined time, 100 μl aliquots of the spiked gastric or intestinal fluid were extracted by adding 400 μl of acetone as discussed above.

[4] = Pharmacokinetics of HI-113 and its metabolites after intravenous HI-113
Protocol: (§5) Female Balb/c mice (6-8 weeks old) from Taconic (Germantown, N.Y.) were housed in a controlled environment (12-hours of light/12-hours of dark, 22±1° C., 60±10% relative humidity), which is fully accredited by the USDA. All rodents were housed in microisolator cages (Lab Products, Inc., N.J.) containing autoclaved bedding. The mice were allowed free access to autoclaved pellet food and tap water throughout the study.
(§6) All collected blood samples were heparinized and centrifuged at 7000×g for 5 minutes to separate the plasma fraction from the whole blood. The plasma samples were then processed immediately using the extraction procedure described above.
An appropriate model was chosen on the basis of the lowest sum of weighted squared residuals, the lowest Schwartz Criterion (SC), the lowest Akaike's Information Criterion (AIC) value, the lowest standard errors of the fitted parameters, and the dispersion of the residuals. The elimination half-life was estimated by linear regression analysis of the terminal phase of the plasma concentration-time profile. […] The systemic clearance (CL) was determined by dividing the dose by the AUC.

[5] = Pharmacokinetics of Ala-d4T-MP and its metabolite after intravenous Ala-d4T-MP; type: in vivo, Balb/c mice
Protocol: as §5
Blood samples (˜500 μL) were obtained from the ocular venous plexus by retro-orbital venipuncture at 0, 2, 5, 10, 15, 30, 45, 60, 120, 240 and 360 minutes after intravenous injection. […]
Pharmacokinetic modeling and parameter calculations were carried out using the WinNonlin Professional Version 3.0 (Pharsight, Inc., Mountain, Calif.) pharmacokinetics software (Chen et al., Pharm. Res., 16, 1003 (1999); Chen et al., Pharm. Res., 16, 117 (1999); Chen et al., J. Clin. Pharmacol., 39, 1248 (1999); Uckun et al., Clin. Cancer Res., 5, 2954 (1999); and Uckun et al., J. Pharmacol. Exp. Ther., 291, 1301 (1999)). […] The area under the concentration-time curve (AUC) was calculated according to the linear trapezoidal rule between the first sampling time (0 hours) and the last sampling time plus C/k, where C is the concentration of the last sampling and k is the elimination rate constant. The systemic clearance (CL) was determined by dividing the dose by the AUC. […]

[6] = Stability of HI-113 and Ala-d4T-MP in whole blood; type: in vitro ADME; settings: 37° C.; for stability in whole blood: 250 μM HI-113, 100 μM Ala-d4T-MP
From the text: as §1, §2, §3

[7] = for effect of esterase inhibitor on decomposition of HI-113 in plasma: plasma pre-incubated with inhibitor at 37° C. for 30 minutes, 250 μM HI-113
Protocol: Plasma samples were pre-incubated with the esterase inhibitors paraoxon (final concentration of 0.1 mM), physostigmine (final concentration of 0.1 mM), and EDTA (final concentration of 1M) at 37° C. for 30 minutes. […] The data in Table 1 was the mean percent hydrolysis from two experiments.

[8] = Stability of HI-113 in murine liver homogenates; type: in vitro ADME, Balb/c mice; settings: 100 μM
Protocol: Fresh mouse liver was obtained from Balb/c mice and homogenated in 1×PBS (1:1, W/V) using a Polytron (PT-MR2000) homogenizer (Kinematical AG, Littau, Switzerland). […] At a predetermined time, an aliquot (100 μl) of spiked liver homogenate was extracted by adding 400 μl of acetone to induce precipitation of proteins, as described above.

HIV-2 = settings: PBMNC; cited from earlier work
[9] = tested on: HIV replication in human peripheral blood mononuclear cells (PBMNC); settings: compared with d4T; cited from earlier work
[10] = tested on: zidovudine (ZVD/AZT)-resistant HIV-1 strains; settings: PBMNC; cited from earlier work
[11] = tested on: HIV replication in thymidine kinase-deficient T-cells; settings: compared with d4T; cited from earlier work
[12] = Stability in simulated gastric fluid; type: in vitro ADME; settings: 100 μM, 37° C.
Protocol: as §4

[13] = Pharmacokinetics of d4T after intravenous d4T; type: in vivo, Balb/c mice; settings: i.v. d4T 40 mg/kg
Protocol: as §5
Blood samples (˜500 μL) were obtained from the ocular venous plexus by retro-orbital venipuncture at 0, 2, 5, 10, 15, 30, 45, 60, 120, 240 and 360 minutes after intravenous injection.
as §6
Pharmacokinetic modeling and parameter calculations were carried out using the WinNonlin Professional Version 3.0 (Pharsight, Inc., Mountain, Calif.) pharmacokinetics software (Chen et al., Pharm. Res., 16, 1003 (1999); Chen et al., Pharm. Res., 16, 117 (1999); Chen et al., J. Clin. Pharmacol., 39, 1248 (1999); Uckun et al., Clin. Cancer Res., 5, 2954 (1999); and Uckun et al., J. Pharmacol. Exp. Ther., 291, 1301 (1999)). An appropriate model was chosen on the basis of the lowest sum of weighted squared residuals, the lowest Schwartz Criterion (SC), the lowest Akaike's Information Criterion (AIC) value, the lowest standard errors of the fitted parameters, and the dispersion of the residuals. The elimination half-life was estimated by linear regression analysis of the terminal phase of the plasma concentration-time profile. The area under the concentration-time curve (AUC) was calculated according to the linear trapezoidal rule between the first sampling time (0 hours) and the last sampling time plus C/k, where C is the concentration of the last sampling and k is the elimination rate constant. The systemic clearance (CL) was determined by dividing the dose by the AUC. The metabolic clearance of the parent drug, the formation clearance of the metabolite, the clearance elimination of the metabolite, and the distribution clearance of the metabolite were estimated by simultaneous fitting of the concentration of parent drug and metabolites as a function of time curve to pharmacokinetic models (see FIGS. 7A & 8A) specified as a system of differential equations (Gabrielsson & Weiner, Phamacokinetic/Phamacodynamic Data Analysis: Concepts and Applications, Swedish Pharmaceutical Press (1997)).

[14] = i.v. HI-113 100 mg/kg, plasma, estimated from composite curve of pooled data
[15] = i.v. HI-113 100 mg/kg, mean ± S.E.M
[16] = plasma, estimated from composite curve of pooled data

Q: What does the source list for `Cc1cn([C@H]2C=C[C@@H](COP(=O)(O)NC(C)C(=O)O)O2)c(=O)[nH]c1=O` (stereo partly shown) [Ala-d4T-MP, alaninyl-d4T-monophosphate]?
A: estimated bioavailability of the metabolite ([1]; after oral administration of HI-113): approximately 12%; stability in plasma [2]: stable in both whole blood and plasma for 1 day; stability in intestinal fluid [3]: stable; fraction of HI-113 converted to the metabolite ([4]; after intravenous HI-113): 23%; CLm1 as share of the total systemic clearance ([5]; i.v. Ala-d4T-MP): 99%; stability in whole blood [6]: stable in both whole blood and plasma for 1 day

Q: Which “effect of esterase inhibitor on decomposition of HI-113 in plasma” value [7] does the source give for `O=C(O)CN(CCN(CC(=O)O)CC(=O)O)CC(=O)O` [EDTA, reference compound] here?
A: not affected

Q: With `COC(=O)C(C)NP(=O)(OC[C@@H]1C=C[C@H](n2cc(C)c(=O)[nH]c2=O)O1)Oc1ccc(Br)cc1` (stereo partly shown) [HI-113, d4T-5′-[p-bromophenylmethoxyalaninyl phosphate]] as the molecule, how does the “time within which HI-113 decomposed in liver homogenate” value [8] read?
A: ≤ 30 min

Q: And the “concentration inhibiting replication of HIV-2” value (HIV-2)?
A: nanomolar concentrations

Q: And the “plasma concentration of the parent compound (below the detection limit)” value ([1]; oral HI-113 100 mg/kg)?
A: < 500 nM

Q: What about the “time until decomposition was complete in plasma” value ([2]; 250 μM) of the same molecule?
A: ≤ 30 min

Q: What about the “stability in plasma” value [2] of the same molecule?
A: very unstable

Q: What about the “HI-113 decomposed following incubation with plasma” value ([2]; after 5 minutes, 250 μM) of the same molecule?
A: over 95%

Q: What about the “stability in intestinal fluid” value [3] of the same molecule?
A: not stable

Q: And the “HI-113 decomposed in intestinal fluid” value ([3]; within 2 hours)?
A: approximately 94%

Q: And the VSS [4, 14]?
A: 0.8199 L/kg

Q: And the CL [4, 15]?
A: (174.5 ± 13.2) ml/min/kg

Q: What about the VSS [4, 15] of the same molecule?
A: (920 ± 127.4) ml/kg

Q: And the “potency in inhibiting HIV replication” value [9]?
A: substantially more potent than d4T

Q: And the “percent hydrolysis of HI-113 in plasma” value ([7]; EDTA (1 mM), 10 min)?
A: 100%

Q: And the “percent hydrolysis of HI-113 in plasma” value ([7]; EDTA (1 mM), 15 min)?
A: 100%

Q: What about the “percent hydrolysis of HI-113 in plasma” value ([7]; EDTA (1 mM), 30 min) of the same molecule?
A: 100%

Q: What about the “percent hydrolysis of HI-113 in plasma” value ([7]; EDTA (1 mM), 60 min) of the same molecule?
A: 100%

Q: And the “percent hydrolysis of HI-113 in plasma” value ([7]; EDTA (1 mM), 120 min)?
A: 100%

Q: And the “percent hydrolysis of HI-113 in plasma” value ([7]; EDTA (1 mM), arylesterase, 5 min)?
A: 99%

Q: And the “percent hydrolysis of HI-113 in plasma” value ([7]; Paraoxon (0.1 mM), 10 min)?
A: 2%

Q: What about the “percent hydrolysis of HI-113 in plasma” value ([7]; Paraoxon (0.1 mM), 15 min) of the same molecule?
A: 2%

Q: And the “percent hydrolysis of HI-113 in plasma” value ([7]; Paraoxon (0.1 mM), 30 min)?
A: 2%

Q: And the “percent hydrolysis of HI-113 in plasma” value ([7]; Paraoxon (0.1 mM), 60 min)?
A: 3%

Q: What about the “percent hydrolysis of HI-113 in plasma” value ([7]; Paraoxon (0.1 mM), 120 min) of the same molecule?
A: 24%

Q: And the “percent hydrolysis of HI-113 in plasma” value ([7]; Paraoxon (0.1 mM), cholinesterase & carboxylesterase, 5 min)?
A: 0%

Q: And the “percent hydrolysis of HI-113 in plasma” value ([7]; Physostigmine (0.1 mM), 10 min)?
A: 65%

Q: And the “percent hydrolysis of HI-113 in plasma” value ([7]; Physostigmine (0.1 mM), 15 min)?
A: 76%

Q: And the “percent hydrolysis of HI-113 in plasma” value ([7]; Physostigmine (0.1 mM), 30 min)?
A: 89%

Q: What about the “percent hydrolysis of HI-113 in plasma” value ([7]; Physostigmine (0.1 mM), 60 min) of the same molecule?
A: 100%

Q: And the “percent hydrolysis of HI-113 in plasma” value ([7]; Physostigmine (0.1 mM), 120 min)?
A: 100%

Q: What about the “percent hydrolysis of HI-113 in plasma” value ([7]; Physostigmine (0.1 mM), cholinesterase, 5 min) of the same molecule?
A: 43%

Q: And the “percent hydrolysis of HI-113 in plasma” value ([7]; no inhibitor, 5 min, 250 μM HI-113, mean of two experiments)?
A: 95%

Q: And the “percent hydrolysis of HI-113 in plasma” value ([7]; no inhibitor, 10 min)?
A: 98%

Q: What about the “percent hydrolysis of HI-113 in plasma” value ([7]; no inhibitor, 15 min) of the same molecule?
A: 99%

Q: What about the “percent hydrolysis of HI-113 in plasma” value ([7]; no inhibitor, 30 min) of the same molecule?
A: 100%

Q: What about the “percent hydrolysis of HI-113 in plasma” value ([7]; no inhibitor, 60 min) of the same molecule?
A: 100%

Q: And the “percent hydrolysis of HI-113 in plasma” value ([7]; no inhibitor, 120 min)?
A: 100%

Q: And the “concentration inhibiting replication of zidovudine (ZVD/AZT)-resistant HIV-1 strains” value [10]?
A: nanomolar concentrations

Q: And the “potency in inhibiting HIV replication” value [11]?
A: substantially more potent than d4T

Q: What about the “stability in gastric fluid” value [12] of the same molecule?
A: relatively stable in gastric fluid for 8 hours

Q: What about the “stability in whole blood” value [6] of the same molecule?
A: very unstable

Q: What about the “time until decomposition was complete in whole blood” value ([6]; 250 μM) of the same molecule?
A: ≤ 30 min

Q: What about the “HI-113 decomposed in whole blood” value ([6]; 5 minutes, 250 μM) of the same molecule?
A: 68%

Q: And the “HI-113 decomposed in whole blood” value ([6]; 10 minutes, 250 μM)?
A: 87%

Q: What about the “HI-113 decomposed in whole blood” value ([6]; 15 minutes, 250 μM) of the same molecule?
A: 92%

Q: What does the source list for `Cc1cn([C@H]2C=C[C@@H](CO)O2)c(=O)[nH]c1=O` [d4T, 2′,3′-didehydro-2′,3′-dideoxythymidine]?
A: t1/2 [4, 14]: 1.913 h; formation of d4T from intravenously administered Ala-d4T-MP (fraction converted) ([5]; female, Balb/c, mouse, in vivo, iv): 15%; AUC [13, 16]: 12227.1 µM·min; CL [13, 16]: 15.0 mL/min/kg; VSS [13, 16]: 0.6578 L/kg; t1/2 [13, 16]: 0.505 h; CL ([13]; mean ± S.E.M): (15.2 ± 0.7) ml/min/kg; VSS ([13]; mean ± S.E.M): (581.8 ± 62.8) ml/kg; t1/2 ([13]; mean ± S.E.M): (26.6 ± 1.2) min

Q: For `CCOP(=O)(OCC)Oc1ccc([N+](=O)[O-])cc1` [paraoxon, reference compound], which “effect of esterase inhibitor on decomposition of HI-113 in plasma” value [7] is on record?
A: significantly inhibited
